Test results reported in patent US11492359B2, “Near-infrared nerve-sparing fluorophores” (OREGON HEALTH & SCIENCE UNIVERSITY, priority 2018, dated 2022).

Test: UV-Vis absorption and fluorescence spectroscopy of the Oxazine library
Format: physicochemical
Settings: for Extinction coefficient: Beer's Law plots; for Quantum yield: relative, references Oxazine 1, Oxazine 170, Rhodamine 101
Protocol: All reagents were purchased from Sigma Aldrich, Fisher Scientific, TCI, or Ark Pharm. Unless otherwise indicated, all commercially available starting materials were used directly without further purification. Analytical thin layer chromatography (TLC) was performed on Millipore ready-to-use plates with silica gel 60 (F254, 32-63 μm). Flash chromatography was performed on Sorbent Technologies silica gel for column chromatography or on a Biotage Isolera Flash System using SNAP Ultra cartridges. High-resolution mass spectra (HRMS) were measured on a ThermoElectron LTQ-Orbitrap high resolution mass spectrometer with a dedicated Accela HPLC system, or an Agilent 6244 time-of-flight LCMS with diode array detector VL+. LCMS and Purity Characterization Mass-to-charge ratio and purity of the Oxazine compounds were characterized on an Agilent 6244 time-of-flight tandem liquid chromatography mass spectroscopy (LCMS) with diode array detector VL+. Sample (10 μL) was injected into a C18 column (Poroshell 120, 4.6×50 mm, 2.7 micron), and eluted with a solvent system of A (H2O, 0.1% FA) and B (MeCN, 01.% FA) at 0.4 mL/min, from A/B=90/10 to 5/95 over 10 min, maintained at A/B=5/95 for additional 5 min. Ions were detected in positive ion mode by setting the capillary voltage at 4 kV and gas temperature at 350° C. Purity was calculated through area under the curve analysis of the absorbance at 254 nm. UV-Vis Absorption and Fluorescence Spectroscopy. UV-Vis spectra were collected with a Cary 50 UV-Vis spectrophotometer at room temperature, using a 1-cm quartz cuvette. Fluorescence spectra were collected on a Cary Eclipse fluorescence spectrophotometer (Agilent Technologies). All absorbance spectra were reference corrected. Extinction coefficient was calculated from Beer's Law plots of absorbance versus concentration. Fluorescence spectra were corrected for the wavelength dependent response of the R928 photomultiplier tube using a manufacturer generated correction file. Relative quantum yields are reported as the average of multiple measurements using multiple references, including Oxazine 1, Oxazine 170, and Rhodamine 101. Physicochemical Property Calculation. Physicochemical partition coefficients (Log D) values at pH 7.4, number of hydrogen bond donors and acceptors, polar surface area, and the number of rotatable bonds were calculated using Marvin and JChem calculator plugins (ChemAxon, Budapest, Hungary). Nerve-Specificity Screening using Direct/Topical Administration Each compound was screened for its tissue-specificity using a previously published direct/topical administration strategy in murine brachial plexus and sciatic nerves.^1 Each compound from the Oxazine library was formulated in the previously utilized co-solvent formulation (10% DMSO, 5% Kolliphor, 65% serum and 20% phosphate buffered saline) at 125 μM. 100 μL of the formulated Oxazine were incubated on the exposed brachial plexus or sciatic nerve for 5 minutes. The fluorophore containing solution was removed and the area was irrigated with saline 18 times to remove any unbound fluorophore. Co-registered fluorescence and color images were collected of each stained area 30 minutes after Oxazine direct/topical administration using a custom built macroscopic imaging system with 620/60 nm excitation and 700/75 nm bandpass emission filters. Custom written MatLab code was used to analyze the tissue specific fluorescence where regions of interest were selected on the nerve, muscle and adipose tissue using the white light images. These regions of interest were then analyzed on the co-registered matched fluorescence images permitting assessment of the nerve to muscle and nerve to adipose ratios in blinded manner. […]

Molecule | Max Abs [nm] | Max Em [nm] | Max Ex [nm] | Extinction coefficient [M⁻¹ cm⁻¹] | Quantum yield [%]
CCN1CCCc2cc3nc4ccc(=[N+](CC)CC)cc-4oc3cc21 [LGW02-92, N-ethyl-N-(1-ethyl-1,2,3,4-tetrahydro-9H-pyrido[3,2-b]phenoxazin-9-ylidene)ethanaminium] | 656 | 673 | 660 | 43659 | 9.27
CCNc1cc(C)c2nc3ccc(=[N+](CC)CC)cc-3oc2c1 [LGW02-61, N-ethyl-N-(7-(ethylamino)-9-methyl-3H-phenoxazin-3-ylidene)ethanaminium] | 630 | 658 | 635 | 68548 | 6.12
CCN1CCCc2cc3c(cc21)Oc1cc2c(cc1=N3)CCC[N+]=2CC [LGW02-99, 1,11-diethyl-3,4,8,9,10,11-hexahydro-2H-dipyrido[3,2-b:2′,3′-i]phenoxazin-1-ium] | 640 | 675 | 665 | 59971 | 24.67
CC[N+](CC)=c1ccc2nc3cc4c5c(c3oc-2c1)CCCN5CCC4 [LGW02-86, N-ethyl-N-(2,3,6,7-tetrahydro-1H,5H,12H-quinolizino[1,9-bc]phenoxazin-12-ylidene)ethanaminium] | 661 | 680 | 665 | 39472 | 13.18
CC/N=c1/cc2oc3cc4c(cc3nc-2cc1C)CCCN4CC [LGW02-91, (Z)—N-(1-ethyl-8-methyl-1,2,3,4-tetrahydro-9H-pyrido[3,2-b]phenoxazin-9-ylidene)ethanaminium] | 640 | 657 | 645 | 59971 | 23.58
CC/N=c1/cc2oc3cc(N4CCCCC4)ccc3nc-2cc1C [LGW03-21, (Z)—N-(2-methyl-7-(piperidin-1-yl)-3H-phenoxazin-3-ylidene)ethanaminium] | 642 | 661 | 640 | 36049 | 2.25
CCNc1ccc2nc3ccc(=[N+](CC)CC)cc-3oc2c1 [LGW01-25, N-ethyl-N-(7-(ethylamino)-3H-phenoxazin-3-ylidene)ethanaminium] | 635 | 660 | 640 | 41771 | 3.31
N-ethyl-N-(2,2,4,8-tetramethyl-1,2-dihydro-9H-pyrido[3,2-b]phenoxazin-9-ylidene)ethanaminium [LGW01-56] | 664 | 684 | 670 | 38832 | 11.68
CC/N=c1/cc2oc3cc4c(cc3nc-2cc1C)OCCN4 [LGW03-41, (Z)—N-(9-methyl-3,4-dihydro-[1,4]oxazino[2,3-b]phenoxazin-8(2H)-ylidene)ethanaminium] | 607 | 641 | 625 | 19729 | 25.80
c1c2c3c(c4c1N=c1cc5c6c(c1O4)CCC[N+]=6CCC5)CCCN3CCC2 [LGW02-87, 2,3,6,7,12,13,16,17-octahydro-1H,5H,11H,15H-diquinolizino[1,9-bc:1′,9′-hi]phenoxazin-4-ium] | 678 | 690 | 680 | 59937 | 15.03

Results, then the molecule that gave them:

Max Abs [nm] | Max Em [nm] | Max Ex [nm] | Extinction coefficient [M⁻¹ cm⁻¹] | Quantum yield [%] | Molecule
678 | 699 | 680 | 38039 | 6.82 | CCN1c2cc3oc4cc(=[N+](CC)CC)ccc-4nc3cc2C(C)=CC1(C)C [LGW03-52, N-ethyl-N-(1-ethyl-2,2,4-trimethyl-1,2-dihydro-9H-pyrido[3,2-b]phenoxazin-9-ylidene)ethanaminium]
638 | 660 | 640 | 36166 | 3.84 | CCNc1cc2oc3cc(=[N+](CC)CC)ccc-3nc2cc1Cl [LGW05-33, N-(8-chloro-7-(ethylamino)-3H-phenoxazin-3-ylidene)-N-ethylethanaminium]
590 | 606 | 590 | 39303 | 37.61 | Cc1cc2nc3cc(C)c(=N)cc-3oc2cc1N [LGW06-14, 7-amino-2,8-dimethyl-3H-phenoxazin-3-iminium]
637 | 658 | 640 | 50981 | 3.95 | (Z)—N-(7-(dimethylamino)-2-methyl-3H-phenoxazin-3-ylidene)ethanaminium [LGW04-84]
611 | 632 | 610 | 58410 | 43.02 | CC/N=c1/cc2oc3cc(NCC)c(F)cc3nc-2cc1C [LGW05-81, (Z)—N-(7-(ethylamino)-8-fluoro-2-methyl-3H-phenoxazin-3-ylidene)ethanaminium]
701 | 718 | 710 | 34002 | 36.68 | CCN1c2cc3c(cc2C(C)=CC1(C)C)N=c1cc2c(cc1O3)=[N+](CC)C(C)(C)C=C2C [LGW05-66, 1,11-diethyl-2,2,4,8,10,10-hexamethyl-10,11-dihydro-2H-dipyrido[3,2-b:2′,3′-i]phenoxazin-1-ium]
649 | 665 | 655 | 51130 | 32.17 | CCN1CCc2cc3c(cc21)Oc1cc2c(cc1=N3)CC[N+]=2CC [LGW07-59, 1,9-diethyl-2,3,7,8-tetrahydro-1H-dipyrrolo[3,2-b:2′,3′-i]phenoxazin-9-ium]
657 | 676 | 660 | 55570 | 32.95 | CCN1CCOc2cc3c(cc21)Oc1cc2c(cc1=N3)OCC[N+]=2CC [LGW05-73, 4,8-diethyl-3,8,9,10-tetrahydro-2H-bis([1,4]oxazino)[2,3-b:3′,2′-i]phenoxazin-4-ium]
